One may read the inhibition as the percentage by which the read-out fell short of the control. Low values mean a response near the control, high ones a response far below the control. Broadly, the IC50 is the concentration that inhibits the measured activity by half.

The test system of assay [1] is S6 (serine 235 and 236) phosphorylation in AN3CA tumor. The experiment in a line: S6 phosphorylation inhibition assay in xenograft. The conditions noted are these: Mus musculus, AN3-CA, oral, 6 hr after dosing. It is filed as in vivo, female nude mouse. As to the method:
(§1) A tumor section was prepared from a human endometrial cancer cell strain AN3CA tumor mass formed in a female nude mouse as subcutaneously transplanted tumor and a xenograft model was prepared by subcutaneously transplanting the tumor to a female nude mouse. The test compound at a predetermined concentration was orally administered. After a predetermined time, the anesthetized mouse was exsanguinated to death, and a tumor mass was isolated. The tumor mass was crushed using a lysis buffer containing inhibitors of proteases and dephosphorylating enzymes (Cell Signaling Technology, Inc.) and the supernatant was separated by centrifugation to obtain a tumor extract. The protein content of the tumor extract was measured using DC Protein Assay Kit (Bio-Rad Laboratories, Inc.) and phosphorylation conditions of Akt (threonine 308) and S6 (serine 235 and 236) were analyzed by a usual technique of western blotting using tumor extracts containing the same amount of protein. The primary antibody and the secondary antibody used for detecting each molecule were rabbit anti-phospho-Akt(T308) antibody and HRP-labeled goat anti-rabbit IgG antibody or mouse anti-phospho-S6(S235/236) antibody and HRP-labeled sheep anti-mouse IgG antibody.
(§2) The signal intensity detected using an image analyzer Typhoon 9400 (GE Healthcare) was quantified, and the phosphorylation inhibition rate (%) was calculated by the following formula. Phosphorylation inhibitory activity (%) of Akt and S6 after treatment with test compound=100−100×(B/A) A: Signal intensity derived from phosphorylated protein in tumor mass isolated from mouse untreated with test compound B: Signal intensity derived from phosphorylated protein in tumor mass isolated from mouse treated with test compound

Assay [2] deals with Akt (threonine 308) phosphorylation in AN3CA tumor. The experiment in a line: Akt phosphorylation inhibition assay in xenograft. It is filed as in vivo, female nude mouse. To be noted: Mus musculus, AN3-CA, oral, 6 hr after dosing. The procedure:
as §1, §2

In a further assay the target is PI3Kα (Homo sapiens, UniProt P42336). The experiment in a line: PI3K kinase activity inhibition assay. The conditions noted are these: Kinase-Glo Plus ATP detection, read-out: IC50 against PI3K. It is filed as biochemical. The essentials:
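PI3Kα (50 nM solution) was reacted with 30 μM ATP and 45 μM PIP2 solutions, each in HEPES pH 7.4 with MgCl2 and DTT, for 2 h at room temperature. Remaining ATP was measured by Kinase-Glo Plus luminescence, and inhibition was derived from ATP consumed. IC50 was taken from curve fitting of the serial dilutions.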
For orientation: Kinase-Glo reads ATP consumption through a luciferase reaction.

Sequence of PI3Kα (P42336 whole entry, species assumed): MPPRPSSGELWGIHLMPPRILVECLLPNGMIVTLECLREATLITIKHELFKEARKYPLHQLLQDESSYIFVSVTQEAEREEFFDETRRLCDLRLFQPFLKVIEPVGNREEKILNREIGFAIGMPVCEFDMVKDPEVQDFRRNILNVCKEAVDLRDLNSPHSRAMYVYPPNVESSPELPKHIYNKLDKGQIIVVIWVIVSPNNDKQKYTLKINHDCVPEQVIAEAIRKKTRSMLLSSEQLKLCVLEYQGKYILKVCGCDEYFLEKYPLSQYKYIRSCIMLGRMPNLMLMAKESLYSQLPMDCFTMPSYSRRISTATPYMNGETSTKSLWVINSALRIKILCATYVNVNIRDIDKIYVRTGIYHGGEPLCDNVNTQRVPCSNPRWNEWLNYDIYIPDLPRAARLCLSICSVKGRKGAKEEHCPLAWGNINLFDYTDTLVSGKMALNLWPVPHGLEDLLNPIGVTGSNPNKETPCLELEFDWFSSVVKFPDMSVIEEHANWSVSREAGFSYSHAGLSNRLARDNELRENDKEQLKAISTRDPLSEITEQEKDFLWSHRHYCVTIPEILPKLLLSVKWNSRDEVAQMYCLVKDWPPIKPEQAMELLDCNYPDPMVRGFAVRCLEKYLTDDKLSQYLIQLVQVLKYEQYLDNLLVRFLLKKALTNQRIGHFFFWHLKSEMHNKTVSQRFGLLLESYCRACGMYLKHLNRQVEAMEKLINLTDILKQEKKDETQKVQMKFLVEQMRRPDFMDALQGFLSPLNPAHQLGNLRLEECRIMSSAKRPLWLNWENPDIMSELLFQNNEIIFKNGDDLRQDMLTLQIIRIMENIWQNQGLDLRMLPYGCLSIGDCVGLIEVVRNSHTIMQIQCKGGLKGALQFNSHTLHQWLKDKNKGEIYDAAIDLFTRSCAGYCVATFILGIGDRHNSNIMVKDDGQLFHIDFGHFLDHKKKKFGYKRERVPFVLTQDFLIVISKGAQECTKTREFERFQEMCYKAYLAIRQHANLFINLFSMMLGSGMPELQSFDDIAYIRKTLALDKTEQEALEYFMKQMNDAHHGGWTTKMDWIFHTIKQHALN
Sequence of PI3Kα (P27986 whole entry partner, species assumed): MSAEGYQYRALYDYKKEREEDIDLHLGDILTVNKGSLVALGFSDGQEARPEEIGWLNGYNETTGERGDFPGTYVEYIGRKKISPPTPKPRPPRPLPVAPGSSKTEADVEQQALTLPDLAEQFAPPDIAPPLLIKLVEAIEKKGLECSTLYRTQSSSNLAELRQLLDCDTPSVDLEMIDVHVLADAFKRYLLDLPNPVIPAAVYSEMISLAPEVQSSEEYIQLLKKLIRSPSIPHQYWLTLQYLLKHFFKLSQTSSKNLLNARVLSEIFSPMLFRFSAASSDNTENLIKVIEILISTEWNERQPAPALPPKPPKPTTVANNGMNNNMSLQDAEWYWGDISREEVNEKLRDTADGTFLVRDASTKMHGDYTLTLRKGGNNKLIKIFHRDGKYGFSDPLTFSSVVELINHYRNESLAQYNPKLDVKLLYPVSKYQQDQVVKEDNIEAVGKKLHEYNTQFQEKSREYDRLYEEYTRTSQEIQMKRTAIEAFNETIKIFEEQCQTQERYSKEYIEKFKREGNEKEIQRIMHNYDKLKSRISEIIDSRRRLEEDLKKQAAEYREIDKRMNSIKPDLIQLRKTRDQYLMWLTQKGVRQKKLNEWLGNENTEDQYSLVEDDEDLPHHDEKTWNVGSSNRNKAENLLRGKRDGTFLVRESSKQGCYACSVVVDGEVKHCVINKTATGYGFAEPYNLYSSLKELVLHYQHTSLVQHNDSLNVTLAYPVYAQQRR

Turning to `C[C@H]1CN(c2nc3c(N4CCOCC4)nc(-c4cnc(N)nc4)nc3n2CC(F)(F)F)CCN1S(C)(=O)=O` [Example 62, 5-{8-[(3S)-3-Methyl-4-(methylsulfonyl)piperazin-1-yl]-6-morpholin-4-yl-9-(2,2,2-trifluoroethyl)-9H-purin-2-yl}pyrimidin-2-amine], the results for the inhibition at 10 mg/kg in assay [1] and in assay [2] were greater than 90% and 30 to 60%, respectively. For the same compound, the 50% inhibitory concentration (IC50) on PI3Kα is less than 0.01 µM.

`CC(=O)N1CCN(c2nc3c(N4CCOCC4)nc(-c4cnc(N)nc4)nc3n2CC(F)(F)F)C[C@@H]1C` [Example 63, 5-{8-[(3S)-4-Acetyl-3-methylpiperazin-1-yl]-6-morpholin-4-yl-9-(2,2,2-trifluoroethyl)-9H-purin-2-yl}pyrimidin-2-amine]: the inhibition at 10 mg/kg in assay [1] was greater than 90%; in assay [2] it was greater than 60%. Moreover, at PI3Kα, the IC50 is less than 0.01 µM.

On to `CS(=O)(=O)N1CCN(c2nc3c(N4CCOCC4)nc(-c4cnc(N)nc4)nc3n2CC(F)F)CC1` [Example 64, 5-{9-(2,2-Difluoro-ethyl)-8-[4-(methylsulfonyl)piperazin-1-yl]-6-morpholin-4-yl-9H-purin-2-yl}pyrimidin-2-amine], for which the values for the inhibition at 10 mg/kg in assay [1] and in assay [2] were greater than 90% and 30 to 60%, respectively. Further, the 50% inhibitory concentration (IC50) at PI3Kα was in the range of 0.01 to 0.02 µM.

As to `CC(=O)C(=O)N1CCN(c2nc3c(N4CCOCC4)nc(-c4cnc(N)nc4)nc3n2CC(F)(F)F)CC1` [Example 65, 1-{4-[2-(2-Aminopyrimidin-5-yl)-6-morpholin-4-yl-9-(2,2,2-trifluoroethyl)-9H-purin-8-yl]piperazin-1-yl}-1-oxoacetone], the values for the inhibition at 10 mg/kg in assay [1] and in assay [2] were greater than 90% and 30 to 60%, respectively. In addition, at PI3Kα, the IC50 is less than 0.01 µM.

On to `CN(C)C(=O)C(=O)N1CCN(c2nc3c(N4CCOCC4)nc(-c4cnc(N)nc4)nc3n2CC(F)(F)F)CC1` [Example 66, 2-{4-[2-(2-Aminopyrimidin-5-yl)-6-morpholin-4-yl-9-(2,2,2-trifluoroethyl)-9H-purin-8-yl]piperazin-1-yl}-N,N-dimethyl-2-oxoacetamide], for which the inhibition at 10 mg/kg in assay [1] fell in the range of 70 to 90%; in assay [2], 30 to 60%. Further, the half-maximal inhibitory concentration (IC50) on PI3Kα was less than 0.01 µM.

In the case of `Nc1ncc(-c2nc(N3CCOCC3)c3nc(N4CCN(C(=O)CO)CC4)n(CC(F)(F)F)c3n2)cn1` [Example 67, 2-{4-[2-(2-Aminopyrimidin-5-yl)-6-morpholin-4-yl-9-(2,2,2-trifluoroethyl)-9H-purin-8-yl]piperazin-1-yl}-2-oxoethanol], the figures for the inhibition at 10 mg/kg in assay [1] and in assay [2] were 70 to 90% and 30 to 60%, respectively. In addition, the concentration for half-maximal inhibition (IC50) at PI3Kα was less than 0.01 µM.

`C[C@H](O)C(=O)N1CCN(c2nc3c(N4CCOCC4)nc(-c4cnc(N)nc4)nc3n2CC(F)(F)F)CC1` [Example 68, (2S)-1-{4-[2-(2-Aminopyrimidin-5-yl)-6-morpholin-4-yl-9-(2,2,2-trifluoroethyl)-9H-purin-8-yl]piperazin-1-yl}-1-oxopropan-2-ol]: the inhibition at 10 mg/kg was greater than 90% in assay [1] and greater than 60% in assay [2]. Moreover, the IC50 on PI3Kα lay within 0.01 to 0.02 µM.

Take `C[C@H](O)CC(=O)N1CCN(c2nc3c(N4CCOCC4)nc(-c4cnc(N)nc4)nc3n2CC(F)(F)F)CC1` [Example 69, (2S)-4-{4-[2-(2-Aminopyrimidin-5-yl)-6-morpholin-4-yl-9-(2,2,2-trifluoroethyl)-9H-purin-8-yl]piperazin-1-yl}-4-oxobutan-2-ol]: the results for the inhibition at 10 mg/kg in assay [1] and in assay [2] were greater than 90% and greater than 60%, respectively. Also, on PI3Kα, the 50% inhibitory concentration (IC50) was less than 0.01 µM.

As for `C[C@@H](O)CC(=O)N1CCN(c2nc3c(N4CCOCC4)nc(-c4cnc(N)nc4)nc3n2CC(F)(F)F)CC1` [Example 70, (2R)-4-{4-[2-(2-Aminopyrimidin-5-yl)-6-morpholin-4-yl-9-(2,2,2-trifluoroethyl)-9H-purin-8-yl]piperazin-1-yl}-4-oxobutan-2-ol], the inhibition at 10 mg/kg is greater than 90% in assay [1] and greater than 60% in assay [2]. Further, at PI3Kα, the IC50 lay in the range of 0.01 to 0.02 µM.

With `Nc1ncc(-c2nc(N3CCOCC3)c3nc(N4CCN(C=O)CC4)n(CC(F)(F)F)c3n2)cn1` [Example 71, 4-[2-(2-Aminopyrimidin-5-yl)-6-morpholin-4-yl-9-(2,2,2-trifluoroethyl)-9H-purin-8-yl]piperazine-1-carboaldehyde], the inhibition at 10 mg/kg in assay [1] is greater than 90%; in assay [2], greater than 60%. Besides, the IC50 on PI3Kα was less than 0.01 µM.

`CC[C@H]1CN(c2nc3c(N4CCOCC4)nc(-c4cnc(N)nc4)nc3n2CC(F)(F)F)CCN1C(C)=O` [Example 75, 5-{8-[(3S)-4-Acetyl-3-ethylpiperazin-1-yl]-6-morpholin-4-yl-9-(2,2,2-trifluoroethyl)-9H-purin-2-yl}pyrimidin-2-amine]: the inhibition at 10 mg/kg in assay [1] was greater than 90%; in assay [2], greater than 60%. Moreover, the IC50 on PI3Kα is less than 0.01 µM.

For the compound `CC[C@H]1CN(c2nc3c(N4CCOCC4)nc(-c4cnc(N)nc4)nc3n2CC(F)(F)F)CCN1S(C)(=O)=O` [Example 76, 5-{8-[(3S)-3-Ethyl-4-(methylsulfonyl)piperazin-1-yl]-6-morpholin-4-yl-9-(2,2,2-trifluoroethyl)-9H-purin-2-yl}pyrimidin-2-amine], the inhibition at 10 mg/kg in assay [1] was greater than 90%; in assay [2], greater than 60%. Also, at PI3Kα, the IC50 was less than 0.01 µM.

As for `CC[C@H]1CN(c2nc3c(N4CCOCC4)nc(-c4cnc(N)nc4)nc3n2CC(F)(F)F)CCN1C(=O)[C@H](C)O` [Example 77, (2S)-1-{(2S)-4-[2-(2-Aminopyrimidin-5-yl)-6-morpholin-4-yl-9-(2,2,2-trifluoroethyl)-9H-purin-8-yl]-2-ethylpiperazin-1-yl}-1-oxopropan-2-ol], the inhibition at 10 mg/kg was greater than 90% in assay [1] and greater than 60% in assay [2]. Also, the concentration for half-maximal inhibition (IC50) on PI3Kα was less than 0.01 µM.

On to `CC[C@@H]1CN(c2nc3c(N4CCOCC4)nc(-c4cnc(N)nc4)nc3n2CC(F)(F)F)CCN1C(=O)[C@H](C)O` [Example 79], for which the inhibition at 10 mg/kg was greater than 90% in assay [1] and greater than 60% in assay [2]. Further, at PI3Kα, the half-inhibitory concentration (IC50) was less than 0.01 µM.

As for `CC(C)Cn1c(N2CCN(C(=O)C[C@@H](C)O)CC2)nc2c(N3CCOCC3)nc(-c3cnc(N)nc3)nc21` [Example 81, (2R)-4-{4-[2-(2-Aminopyrimidin-5-yl)-9-isobutyl-6-morpholin-4-yl-9H-purin-8-yl]piperazin-1-yl}-4-oxobutan-2-ol], the inhibition at 10 mg/kg in assay [1] was greater than 90%; in assay [2], greater than 60%. The IC50 on PI3Kα is less than 0.01 µM.

In the case of `CC(C)Cn1c(N2CCN(C(=O)C[C@H](C)O)CC2)nc2c(N3CCOCC3)nc(-c3cnc(N)nc3)nc21` [Example 82, (2S)-4-{4-[2-(2-Aminopyrimidin-5-yl)-9-isobutyl-6-morpholin-4-yl-9H-purin-8-yl]piperazin-1-yl}-4-oxobutan-2-ol], the inhibition at 10 mg/kg is greater than 90% in assay [1] and greater than 60% in assay [2]. Further, on PI3Kα, the half-inhibitory concentration (IC50) is 0.01 to 0.02 µM.

`CC(C)Cn1c(N2CCN(C(=O)C[C@@H](C)O)[C@@H](C)C2)nc2c(N3CCOCC3)nc(-c3cnc(N)nc3)nc21` [Example 83, (2R)-4-{(2S)-4-[2-(2-Aminopyrimidin-5-yl)-9-isobutyl-6-morpholin-4-yl-9H-purin-8-yl]-2-methylpiperazin-1-yl}-4-oxobutan-2-ol]: the values for the inhibition at 10 mg/kg in assay [1] and in assay [2] were greater than 90% and greater than 60%, respectively. For the same compound, on PI3Kα, the half-maximal inhibitory concentration (IC50) is 0.01 to 0.02 µM.

For `CC(C)Cn1c(N2CCN(C(=O)C[C@@H](C)O)[C@H](C)C2)nc2c(N3CCOCC3)nc(-c3cnc(N)nc3)nc21` [Example 84, (2R)-4-{(2R)-4-[2-(2-Aminopyrimidin-5-yl)-9-isobutyl-6-morpholin-4-yl-9H-purin-8-yl]-2-methylpiperazin-1-yl}-4-oxobutan-2-ol], the inhibition at 10 mg/kg was greater than 90% in assay [1] and greater than 60% in assay [2]. For the same compound, the IC50 at PI3Kα was less than 0.01 µM.

Consider `CC(C)Cn1c(N2CCN(C(=O)C[C@H](C)O)[C@@H](C)C2)nc2c(N3CCOCC3)nc(-c3cnc(N)nc3)nc21` [Example 85, (2S)-4-{(2S)-4-[2-(2-Aminopyrimidin-5-yl)-9-isobutyl-6-morpholin-4-yl-9H-purin-8-yl]-2-methylpiperazin-1-yl}-4-oxobutan-2-ol], for which the inhibition at 10 mg/kg in assay [1] was greater than 90%; in assay [2] it was greater than 60%. In addition, the IC50 on PI3Kα was less than 0.01 µM.

Take `CC(C)Cn1c(N2CCN(C(=O)C[C@H](C)O)[C@H](C)C2)nc2c(N3CCOCC3)nc(-c3cnc(N)nc3)nc21` [Example 86, (2S)-4-{(2R)-4-[2-(2-Aminopyrimidin-5-yl)-9-isobutyl-6-morpholin-4-yl-9H-purin-8-yl]-2-methylpiperazin-1-yl}-4-oxobutan-2-ol]: the inhibition at 10 mg/kg is greater than 90% in assay [1] and greater than 60% in assay [2]. Moreover, the IC50 at PI3Kα was less than 0.01 µM.
